These results are taken from patent publication US9725459B2, “3-oxo-tetrahydro-furo[3,2-B]pyrrol-4(5H)-yl) derivatives I” (GRÜNENTHAL GMBH, priority 2014, dated 2017).

Holding throughout (type): biochemical
For one assay, the target named is human cathepsin K (CatK) (Homo sapiens (Human), UniProt P43235). Briefly: CatK functional enzyme assay. The note with it: recombinant human CatK, substrate Z-FR-AMC 40 μM, pH 5.5; Ki by Cheng Prusoff equation; read-out: hCatK, Ki. In a few lines: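 Recombinant human enzymes in 50 mM NaOAc, 10 mM EDTA, 1 mM DTT, 0.01% Triton X-100, pH 5.5, 10 min at RT. CatK: 0.00175 mU/well with 40 μM Z-FR-AMC; CatL: 0.000874 mU/well with 40 μM Z-VVR-AMC. AMC fluorescence read; IC50 converted to Ki via Cheng–Prusoff.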
human cathepsin K (CatK), sequence (P43235 115-329): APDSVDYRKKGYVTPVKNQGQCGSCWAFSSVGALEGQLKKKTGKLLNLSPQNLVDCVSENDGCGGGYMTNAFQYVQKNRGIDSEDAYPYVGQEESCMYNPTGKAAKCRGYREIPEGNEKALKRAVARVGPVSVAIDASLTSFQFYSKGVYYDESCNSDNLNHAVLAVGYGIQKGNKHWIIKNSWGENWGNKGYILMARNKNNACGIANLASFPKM

For the next assay, the target named is human cathepsin L (CatL) (Homo sapiens (Human), UniProt P07711). Kind of assay: CatL functional enzyme assay. The note with it: read-out: hCatL, inhibition [%] at 31.6 μM.
human cathepsin L (CatL), sequence (P07711 114-333): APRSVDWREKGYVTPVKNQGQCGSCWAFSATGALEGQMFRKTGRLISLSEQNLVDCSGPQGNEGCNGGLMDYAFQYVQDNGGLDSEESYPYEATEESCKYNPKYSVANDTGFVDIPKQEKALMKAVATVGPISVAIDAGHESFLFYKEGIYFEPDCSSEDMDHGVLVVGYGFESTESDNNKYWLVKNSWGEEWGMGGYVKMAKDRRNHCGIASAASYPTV
The next assay addresses human cathepsin S (CatS) (Homo sapiens (Human), UniProt P25774). Briefly: CatS functional enzyme assay. The note with it: for Selectivity Ki(hCatS)/Ki(hCatK): ratio Ki(hCatS)/Ki(hCatK); for Ki: recombinant human CatS, substrate Z-VVR-AMC 5 μM, pH 6.5, Ki by Cheng Prusoff equation, read-out: hCatS, Ki. In a few lines:
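Recombinant human enzymes were incubated 10 min at RT with AMC substrate: CatS 0.0007 mU/well with Z-VVR-AMC 5 µM; CatK 0.00175 mU/well with Z-FR-AMC 40 µM; CatL 0.000874 mU/well with Z-VVR-AMC 40 µM. Fluorescence gave IC50, converted to Ki by Cheng-Prusoff.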

human cathepsin S (CatS), sequence (P25774 115-331): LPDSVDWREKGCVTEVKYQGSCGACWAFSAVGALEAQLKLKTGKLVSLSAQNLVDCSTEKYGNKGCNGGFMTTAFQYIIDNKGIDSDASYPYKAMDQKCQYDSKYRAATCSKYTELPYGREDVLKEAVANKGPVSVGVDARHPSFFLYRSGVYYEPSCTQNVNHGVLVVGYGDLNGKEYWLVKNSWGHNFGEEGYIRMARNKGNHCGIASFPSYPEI

For `O=C(N[C@H](C(=O)N1C[C@H](Cl)[C@H]2OCC(=O)[C@H]21)C1CCCCC1)c1ncc(-c2ccncc2F)s1` [Example 50, N-((S)-2-((3aS,6S,6aS)-6-chloro-3-oxotetrahydro-2H-furo[3,2-b]pyrrol-4(5H)-yl)-1-cyclohexyl-2-oxoethyl)-5-(3-fluoropyridin-4-yl)thiazole-2-carboxamide], the Ki at human cathepsin K (CatK) was 11 nM. On human cathepsin L (CatL), the inhibition at 31.6 µM turned out to be 15%. At human cathepsin S (CatS), the “Selectivity Ki(hCatS)/Ki(hCatK)” value amounted to 66.6 and the Ki turned out to be 733 nM.
Consider `Cc1cc(-c2cnc(C(=O)N[C@H](C(=O)N3C[C@H](Cl)[C@H]4OCC(=O)[C@H]43)C3CCCCC3)s2)ccn1` [Example 51, N-((S)-2-((3aS,6S,6aS)-6-chloro-3-oxotetrahydro-2H-furo[3,2-b]pyrrol-4(5H)-yl)-1-cyclohexyl-2-oxoethyl)-5-(2-methylpyridin-4-yl)thiazole-2-carboxamide], for which, at human cathepsin K (CatK), the Ki worked out at 7 nM. On human cathepsin L (CatL), the inhibition at 31.6 µM was 6%. At human cathepsin S (CatS), the “Selectivity Ki(hCatS)/Ki(hCatK)” value was 24.7 and the Ki stood at 173 nM.
For `O=C(N[C@H](C(=O)N1C[C@H](Cl)[C@H]2OCC(=O)[C@H]21)C1CCCCC1)c1ncc(-c2ccc(Cl)nc2)s1` [Example 52, N-((S)-2-((3aS,6S,6aS)-6-chloro-3-oxotetrahydro-2H-furo[3,2-b]pyrrol-4(5H)-yl)-1-cyclohexyl-2-oxoethyl)-5-(6-chloropyridin-3-yl)thiazole-2-carboxamide], the Ki at human cathepsin K (CatK) was 14 nM. For the same compound, on human cathepsin L (CatL), the inhibition at 31.6 µM came out at 7%. For the same compound, on human cathepsin S (CatS), the “Selectivity Ki(hCatS)/Ki(hCatK)” value was found to be 14.5 and the Ki came out at 203 nM.
Consider `O=C(N[C@H](C(=O)N1C[C@H](Cl)[C@H]2OCC(=O)[C@H]21)C1CCCCC1)c1sc(-c2cncnc2)cc1F` [Example 53, N-((S)-2-((3aS,6S,6aS)-6-chloro-3-oxotetrahydro-2H-furo[3,2-b]pyrrol-4(5H)-yl)-1-cyclohexyl-2-oxoethyl)-3-fluoro-5-(pyrimidin-5-yl)thiophene-2-carboxamide], for which, at human cathepsin K (CatK), the inhibitory constant (Ki) is 34 nM. In addition, on human cathepsin L (CatL), the inhibition at 31.6 µM came out at 40%. Besides, on human cathepsin S (CatS), the “Selectivity Ki(hCatS)/Ki(hCatK)” value is listed as 8.9 and the Ki worked out at 302 nM.
For the compound `O=C(N[C@H](C(=O)N1C[C@H](Cl)[C@H]2OCC(=O)[C@H]21)C1CCCCC1)c1cc(F)c(-c2cccnn2)s1` [Example 54, N-((S)-2-((3aS,6S,6aS)-6-chloro-3-oxotetrahydro-2H-furo[3,2-b]pyrrol-4(5H)-yl)-1-cyclohexyl-2-oxoethyl)-4-fluoro-5-(pyridazin-3-yl)thiophene-2-carboxamide], the Ki at human cathepsin K (CatK) came to 21 nM. Besides, the inhibition at 31.6 µM at human cathepsin L (CatL) was 27%. At human cathepsin S (CatS), the “Selectivity Ki(hCatS)/Ki(hCatK)” value amounted to 25.1 and the Ki was found to be 528 nM.
As to `O=C(N[C@H](C(=O)N1C[C@H](Cl)[C@H]2OCC(=O)[C@H]21)C1CCCCC1)c1ccc(-c2cnc(C3CC3)nc2)s1` [Example 55, N-((S)-2-((3aS,6S,6aS)-6-chloro-3-oxotetrahydro-2H-furo[3,2-b]pyrrol-4(5H)-yl)-1-cyclohexyl-2-oxoethyl)-5-(2-cyclopropylpyrimidin-5-yl)thiophene-2-carboxamide], the Ki at human cathepsin K (CatK) is 29 nM; at human cathepsin S (CatS), 70 nM. Further, the inhibition at 31.6 µM on human cathepsin L (CatL) amounted to 13%. Also, on human cathepsin S (CatS), the “Selectivity Ki(hCatS)/Ki(hCatK)” value is 2.4.
For `COc1cc(-c2ccc(C(=O)N[C@H](C(=O)N3C[C@H](Cl)[C@H]4OCC(=O)[C@H]43)C3CCCCC3)s2)ccn1` [Example 56, N-((S)-2-((3aS,6S,6aS)-6-chloro-3-oxotetrahydro-2H-furo[3,2-b]pyrrol-4(5H)-yl)-1-cyclohexyl-2-oxoethyl)-5-(2-methoxypyridin-4-yl)thiophene-2-carboxamide], the results for the Ki on human cathepsin K (CatK) and at human cathepsin S (CatS) were 6 nM and 92 nM, respectively. Also, at human cathepsin L (CatL), the inhibition at 31.6 µM is 20%. Moreover, the “Selectivity Ki(hCatS)/Ki(hCatK)” value on human cathepsin S (CatS) came to 16.6.
Turning to `O=C(N[C@H](C(=O)N1C[C@H](Cl)[C@H]2OCC(=O)[C@H]21)C1CCCCC1)c1ncc(-c2cnc(C3CC3)nc2)s1` [Example 57, N-((S)-2-((3aS,6S,6aS)-6-chloro-3-oxotetrahydro-2H-furo[3,2-b]pyrrol-4(5H)-yl)-1-cyclohexyl-2-oxoethyl)-5-(2-cyclopropylpyrimidin-5-yl)thiazole-2-carboxamide], at human cathepsin K (CatK), the Ki amounted to 42 nM. For the same compound, the inhibition at 31.6 µM on human cathepsin L (CatL) came to 23%. Also, on human cathepsin S (CatS), the “Selectivity Ki(hCatS)/Ki(hCatK)” value is listed as 3.6 and the Ki came to 150 nM.
Take `Cc1nnccc1-c1ccc(C(=O)N[C@H](C(=O)N2C[C@H](Cl)[C@H]3OCC(=O)[C@H]32)C2CCCCC2)s1` [Example 58, N-((S)-2-((3aS,6S,6aS)-6-chloro-3-oxotetrahydro-2H-furo[3,2-b]pyrrol-4(5H)-yl)-1-cyclohexyl-2-oxoethyl)-5-(3-methylpyridazin-4-yl)thiophene-2-carboxamide]: the Ki on human cathepsin K (CatK) is 34 nM. In addition, the inhibition at 31.6 µM at human cathepsin L (CatL) was 21%. Also, at human cathepsin S (CatS), the “Selectivity Ki(hCatS)/Ki(hCatK)” value is recorded as 1.5 and the Ki turned out to be 51 nM.
As for `O=C(N[C@H](C(=O)N1C[C@H](Cl)[C@H]2OCC(=O)[C@H]21)C1CCCCC1)c1sc(-c2cccnn2)cc1F` [Example 59, N-((S)-2-((3aS,6S,6aS)-6-chloro-3-oxotetrahydro-2H-furo[3,2-b]pyrrol-4(5H)-yl)-1-cyclohexyl-2-oxoethyl)-3-fluoro-5-(pyridazin-3-yl)thiophene-2-carboxamide], the Ki on human cathepsin K (CatK) came out at 118 nM; on human cathepsin S (CatS), 726 nM. For the same compound, the inhibition at 31.6 µM on human cathepsin L (CatL) stood at 0%. Besides, the “Selectivity Ki(hCatS)/Ki(hCatK)” value at human cathepsin S (CatS) was determined as 6.2.
For `O=C(N[C@H](C(=O)N1C[C@H](Cl)[C@H]2OCC(=O)[C@H]21)C1CCCCC1)c1sc(-c2ccnnc2)cc1F` [Example 60, N-((S)-2-((3aS,6S,6aS)-6-chloro-3-oxotetrahydro-2H-furo[3,2-b]pyrrol-4(5H)-yl)-1-cyclohexyl-2-oxoethyl)-3-fluoro-5-(pyridazin-4-yl)thiophene-2-carboxamide], on human cathepsin K (CatK), the Ki was found to be 104 nM. In addition, the inhibition at 31.6 µM on human cathepsin L (CatL) is 11%. In addition, on human cathepsin S (CatS), the “Selectivity Ki(hCatS)/Ki(hCatK)” value is 2.3 and the Ki is 238 nM.
The like results for `O=C(N[C@H](C(=O)N1C[C@H](Cl)[C@H]2OCC(=O)[C@H]21)C1CCCCC1)c1ccc(-c2cnc(C(F)(F)F)nc2)s1` [Example 61, N-((S)-2-((3aS,6S,6aS)-6-chloro-3-oxotetrahydro-2H-furo[3,2-b]pyrrol-4(5H)-yl)-1-cyclohexyl-2-oxoethyl)-5-(2-(trifluoromethyl)pyrimidin-5-yl)thiophene-2-carboxamide] were, in that order, 76 nM, 0%, 4.0 and 302 nM.
`O=C(N[C@H](C(=O)N1C[C@H](Cl)[C@H]2OCC(=O)[C@H]21)C1CCCCC1)c1ccc(-c2ccc(C(F)(F)F)nc2)s1` [Example 62, N-((S)-2-((3aS,6S,6aS)-6-chloro-3-oxotetrahydro-2H-furo[3,2-b]pyrrol-4(5H)-yl)-1-cyclohexyl-2-oxoethyl)-5-(6-(trifluoromethyl)pyridin-3-yl)thiophene-2-carboxamide]: the results for the Ki on human cathepsin K (CatK) and at human cathepsin S (CatS) were 58 nM and 580 nM, respectively. Moreover, the inhibition at 31.6 µM on human cathepsin L (CatL) amounted to 25%. Also, the “Selectivity Ki(hCatS)/Ki(hCatK)” value on human cathepsin S (CatS) is on record as 10.0.
